Each structure is given as a SMILES string. “Also recorded” adds a separate entry of the source.

Test [1] addresses T1, Phage T4 polynucleotide kinase (T4 PNK) (Enterobacteria phage T4, UniProt P06855).
T1 construct: purchased Roche Diagnostics (Indianapolis, Ind.)
Put plainly: PiColorLock 3'-phosphatase assay, phage T4 PNK. Type of test: biochemical, bacteriophage T4. The source says: To determine the specificity of A12B4C3 for human PNKP phosphatase activity, a number of closely related phosphatases such as the PNKP enzymes isolated from bacteriophage T4, Schizosaccharomyces pombe and mouse, as well as aprataxin, were examined.

Test [2] has as its target T2, human PNKP (hPNKP) 3'-phosphatase activity (Homo sapiens, UniProt Q96T60).
T2 construct: made in house; host or cells: bacteria (said only for the batch compared with aprataxin)
Briefly: Fluorescence quenching-based screening assay for PNKP 3'-phosphatase activity. Type of test: biochemical. To be noted: 100 μM compound, 50 ng hPNKP. The method, then:
The […] assay developed originally for protein kinases by QTL Biosystems (Santa Fe, N. Mex.) was modified. […] The TAMRA-labelled oligonucleotide lacking a 3'-phosphate served as a control. […] The assay was performed in 384-well white Optiplate microplates (PerkinElmer, Woodbridge, ON) in 70 mM Tris-HCl, pH 7.4, 60 mM MgCl2, 5 mM MnCl2, 0.3% BSA, 0.09% sodium azide. Reaction buffer was prepared by adding 1 mM DTT immediately prior to use. Five μL of 3'-phosphatase substrate (final concentration 0.5 μM) was used per well. In duplicate, 10 μl of each concentration of hPNKP was added per well. Plates were incubated for 1 hour at 37° C. and then 15 μl of 1× sensor solution (provided by QTL) was added to each well and incubated for 30 minutes at room temperature. Fluorescence (485 nm excitation and 520 nm emission wavelengths) of each well was read in a FLUOstar Optima® (BMG Labtech Inc, Durham, N.C.). Data were analyzed using GraphPad Prism® Software (San Diego, Calif.). […] Small molecules were provided in powder form and were dissolved in 100% DMSO and a final concentration of 100 μM was added to each well and assays were performed as described above. After obtaining an optimum calibration curve and enzyme concentration curve, a simplified form of the assay to test the library in a short time, was employed. One concentration of hPNKP, 50 ng, was tested and compared with the control well with no enzyme. The assay was conducted in the same way as described above with respect to oligonucleotides, buffer, controls, incubation lengths/temperatures, centrifugations and sensor addition. The fluorescence-based phosphatase assay adapted was originally developed to monitor protein phosphatase activity (34). This assay involves a fluorescent sensor molecule coated in trivalent metal cations which causes superquenching of the sensor signal when in close proximity to a dye (TAMRA) on the substrate. The sensor is brought close to TAMRA via the ionic bond formed between the terminal DNA phosphate and the trivalent metal cations on the sensor. Removal of the phosphate leads to an elevation of fluorescence because the sensor is not brought close enough to TAMRA for its signal to be quenched. […] Heat inactivated hPNKP was used as a control.

Test [3] addresses human PNKP phosphatase activity (Homo sapiens, UniProt Q96T60). Briefly: PiColorlock Gold assay for 3'-phosphatase activity (release of inorganic phosphate).
A further test deals with A549 cells. Put plainly: Chemosensitization to camptothecin, clonogenic survival assay. To be noted: 1 mM A12B4C3 2 hours before camptothecin, further 24 hours, wild type A549. Type of test: cell-based, human. As to the method: The effect of hPNKP inhibition by A12B4C3 on cellular survival following exposure to the topoisomerase I poison, camptothecin, was measured in A549 and A549δPNKP cells by the clonogenic survival assay (colony forming assay). Cells were seeded on 60-mm tissue culture plates at various concentrations to give between about 100-1000 colonies per plate and returned to the incubator overnight to allow the cells to attach. For chemosensitization studies, the cells were incubated with or without 1 mM A12B4C3 for 2 hours before addition of camptothecin and then exposed to increasing doses of camptothecin (Sigma). After addition of the topoisomerase I poison, cells were incubated for a further 24 hours in the same media and then washed twice with phosphate-buffered saline (PBS) and incubated in fresh media without the inhibitor. Colonies were stained with crystal violet after 10 to 14 days and counted with an automated Colcount colony counter (Oxford Optronix, Oxford, UK).
The capacity of A12B4C3 to act as a chemosensitizer was then examined. […] Colonies were stained with crystal violet after 10 to 14 days and counted with an automated Colcount colony counter (Oxford Optronix, Oxford, UK).

Test [4] relates to M059J cells (DNA-PKcs negative). Type of test: cell-based, human.

T1 sequence (P06855 whole entry): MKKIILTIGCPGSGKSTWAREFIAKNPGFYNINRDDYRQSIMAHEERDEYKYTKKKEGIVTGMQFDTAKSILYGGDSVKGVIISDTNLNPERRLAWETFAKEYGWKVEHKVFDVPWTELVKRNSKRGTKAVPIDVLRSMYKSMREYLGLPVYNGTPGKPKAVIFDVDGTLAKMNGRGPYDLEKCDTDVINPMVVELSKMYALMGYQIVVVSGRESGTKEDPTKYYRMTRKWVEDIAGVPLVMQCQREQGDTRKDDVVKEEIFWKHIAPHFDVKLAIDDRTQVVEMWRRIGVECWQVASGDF

As for `CCCCCCCCCCC(O)C1C=CC2C(=O)N(c3ccccc3)C(=O)C2N1Nc1ccc([N+](=O)[O-])cc1` (centres unmarked) [Compound A12B4C3, 2-(1-hydroxyundecyl)-1-(4-nitrophenylamino)-6-phenyl-6,7a-dihydro-1H-pyrrolo[3,4-b]pyridine-5,7(2H,4aH)-dione], the “inhibition of phage T4 PNKP” value in test [1] (50 μM) is given as “failed to inhibit”. Besides, the values for the inhibition at 50 µM in test [1] (read-out: inhibition of phage T4 PNKP) and in test [3] (read-out: inhibition of human PNKP) were roughly 12.5% and roughly 85%, respectively. In addition, in test [2], the “inhibition of hPNKP phosphatase activity (substrate dephosphorylation) in the screening assay” value is on record as “significant inhibition; also recorded: marked inhibition”. Moreover, the “concentration giving near maximal inhibition” value in test [3] (PiColorLock Gold) is 5 µM. The “potency rank among the five PNKP inhibitors” value in test [3] (PiColorLock Gold, FIG. 4B) is “most potent”. For the same molecule, the chemosensitization to camptothecin result with A549 cells was “effectively sensitized”. The “synthetic lethality in M059J cells” value in test [4] is “no synthetic lethality is seen”.

For the origin of these results see patent publication US9694073B2, “Small molecule inhibitors of polynucleotide kinase/phosphatase, poly(ADP-ribose) polymerase and uses thereof” (THE GOVERNORS OF THE UNIVERSITY OF ALBERTA, priority 2009, dated 2017).
